Measured values: patent publication US8747830B2, “Wound repair composition and method” (Queensland University of Technology, priority 2007, dated 2014)

Test system: MMP's (particularly MMP-9) in chronic wound fluid
Conditions: inhibitor 2 mM, 37° C., 24 hours; % of untreated control remaining
Procedure: Collagenase sensitivity was identified as clear bands against a dark background in zymograms and could be quantitated by densitometric analysis. […] Lanes 1-6 are chronic wound fluid samples from six different patients with 500 ng of total protein loaded per sample. […] Electrophoresis was performed at 4° C. under Laemmli conditions. […] After incubation the gels were stained appropriately and protease activity was visualised as clear (unstained) bands.

`C=C(C)C(=O)NCCCC(O)(P(=O)(O)O)P(=O)(O)O` [alendronate-methacrylate conjugate] was tested, and the “type I collagen degradation relative to that seen in the untreated control (densitometry, FIG. 4)” value was 30%-40%.
